By MIC is commonly meant the smallest concentration in the dilution series that meets the test's criterion for growth inhibition.

Among the data in ChEMBL document CHEMBL3588802, “Thiol activated prodrugs of sulfur dioxide (SO2) as MRSA inhibitors” (Bioorg Med Chem Lett, 2015) are MIC values, retold here.

In brackets after ≈: the same amount, converted by molar mass. A value given as a limit tells only on which side of the number the result lay.

What all share (type): functional
For assay [1], the system named is Staphylococcus aureus. The assay is described as follows: Antibacterial activity against methicillin-sensitive Staphylococcus aureus after 18 to 20 hrs by microbroth dilution method.
Assay [2] has as its system Enterococcus faecalis. The assay is described as follows: Antibacterial activity against Enterococcus faecalis after 18 to 20 hrs by microbroth dilution method. (In general: Dilution methods test growth across graded concentrations, often in twofold steps.)
For assay [3], the system named is Staphylococcus aureus. The assay is described as follows: Antibacterial activity against methicillin-resistant Staphylococcus aureus after 18 to 20 hrs by microbroth dilution method.
The subject of assay [4] is Escherichia coli. As to the kind of experiment: Antibacterial activity against Escherichia coli after 18 to 20 hrs by microbroth dilution method.

With `COc1ccccc1N(C)S(=O)(=O)c1ccc([N+](=O)[O-])cc1[N+](=O)[O-]`, the MIC in assay [1] is 16 µg/mL (≈ 43.6 µM); in assay [2] it was 16 µg/mL (≈ 43.6 µM); in assay [3] it was 16 µg/mL (≈ 43.6 µM); in assay [4] it was more than 32 µg/mL.
As for `C#CCN(c1ccccc1OC)S(=O)(=O)c1ccc([N+](=O)[O-])cc1[N+](=O)[O-]`, the MIC in assay [1] was 4 µg/mL (≈ 10.2 µM); in assay [2], 8 µg/mL (≈ 20.4 µM); in assay [3], 8 µg/mL (≈ 20.4 µM); in assay [4], more than 32 µg/mL.
For the compound `CCCN(c1ccccc1OC)S(=O)(=O)c1ccc([N+](=O)[O-])cc1[N+](=O)[O-]`, the MIC in assay [1], in assay [2] and in assay [4] was more than 32 µg/mL throughout.
The compound `CC(=O)NC[C@H]1CN(c2ccc(N3CCOCC3)c(F)c2)C(=O)O1` [LINEZOLID] displayed an MIC in assay [3] of 1 µg/mL (≈ 2.96 µM).
As to `O=[N+]([O-])c1ccc(S(=O)(=O)N(CCCO)Cc2ccccc2)c([N+](=O)[O-])c1`, the MIC is 16 µg/mL (≈ 40.5 µM) in assay [1], 32 µg/mL (≈ 80.9 µM) in assay [2], 8 µg/mL (≈ 20.2 µM) in assay [3] and more than 32 µg/mL in assay [4].
`C#CCN(Cc1cccc(OC)c1)S(=O)(=O)c1ccc([N+](=O)[O-])cc1[N+](=O)[O-]`: the MIC in assay [1] was 16 µg/mL (≈ 39.5 µM).
Take `COc1cccc(N(CCCN(Cc2ccccc2)S(=O)(=O)c2ccc([N+](=O)[O-])cc2[N+](=O)[O-])S(=O)(=O)c2ccc([N+](=O)[O-])cc2[N+](=O)[O-])c1`: the MIC in assay [1] was more than 32 µg/mL.
Regarding `COc1ccccc1N(Cc1ccccc1)S(=O)(=O)c1ccc([N+](=O)[O-])cc1[N+](=O)[O-]`, the MIC in assay [1], in assay [2] and in assay [4] was more than 32 µg/mL each time.
Turning to `CCCCN(c1ccccc1OC)S(=O)(=O)c1ccc([N+](=O)[O-])cc1[N+](=O)[O-]`, the MIC in assay [1], in assay [2] and in assay [4] was more than 32 µg/mL in each case.
In assay [1], `O=[N+]([O-])c1ccc(S(=O)(=O)Nc2ccc(F)cc2)c([N+](=O)[O-])c1` yielded an MIC of 16 µg/mL (≈ 46.9 µM).
The compound `CN(Cc1ccccc1)S(=O)(=O)c1ccc([N+](=O)[O-])cc1[N+](=O)[O-]` came in with an MIC in assay [1] of 8 µg/mL (≈ 22.8 µM).
Consider `O=[N+]([O-])c1ccc(S(=O)(=O)NCc2ccccc2)c([N+](=O)[O-])c1`, for which the MIC in assay [1] is more than 16 µg/mL.
Still for that read-out and setting: then `COc1ccccc1N(CCCN(Cc1ccccc1)S(=O)(=O)c1ccc([N+](=O)[O-])cc1[N+](=O)[O-])S(=O)(=O)c1ccc([N+](=O)[O-])cc1[N+](=O)[O-]`, with more than 32 µg/mL.
As to `COc1ccccc1NS(=O)(=O)c1ccc([N+](=O)[O-])cc1[N+](=O)[O-]`, the MIC in assay [1] was 8 µg/mL (≈ 22.6 µM); in assay [2], 16 µg/mL (≈ 45.3 µM); in assay [3] it was 8 µg/mL (≈ 22.6 µM); in assay [4], more than 32 µg/mL.
Take `COc1ccc(CN(CCCN(Cc2ccccc2)S(=O)(=O)c2ccc([N+](=O)[O-])cc2[N+](=O)[O-])S(=O)(=O)c2ccc([N+](=O)[O-])cc2[N+](=O)[O-])cc1`: the MIC in assay [1], in assay [2] and in assay [4] was more than 32 µg/mL each time.
With `O=[N+]([O-])c1ccc(S(=O)(=O)N(CCCN(Cc2ccccc2)S(=O)(=O)c2ccc([N+](=O)[O-])cc2[N+](=O)[O-])Cc2ccccc2)c([N+](=O)[O-])c1`, in assay [1], the MIC was more than 16 µg/mL.
As for `C#CCN(Cc1ccc(OC)cc1)S(=O)(=O)c1ccc([N+](=O)[O-])cc1[N+](=O)[O-]`, the MIC in assay [1] is 8 µg/mL (≈ 19.7 µM); in assay [2], 16 µg/mL (≈ 39.5 µM); in assay [3], 8 µg/mL (≈ 19.7 µM); in assay [4] it was more than 32 µg/mL.
Regarding `CCN(c1ccccc1OC)S(=O)(=O)c1ccc([N+](=O)[O-])cc1[N+](=O)[O-]`, the MIC in assay [1] is 8 µg/mL (≈ 21 µM); in assay [2], more than 32 µg/mL; in assay [3], 8 µg/mL (≈ 21 µM); in assay [4], more than 32 µg/mL.
As to `COc1cccc(N(C)S(=O)(=O)c2ccc([N+](=O)[O-])cc2[N+](=O)[O-])c1`, the MIC in assay [1] was 8 µg/mL (≈ 21.8 µM); in assay [2] it was 8 µg/mL (≈ 21.8 µM); in assay [3], 4 µg/mL (≈ 10.9 µM); in assay [4] it was more than 32 µg/mL.
Take `COc1cccc(NS(=O)(=O)c2ccc([N+](=O)[O-])cc2[N+](=O)[O-])c1`: the MIC in assay [1] was 16 µg/mL (≈ 45.3 µM); in assay [2] it was more than 32 µg/mL; in assay [3] it was 32 µg/mL (≈ 90.6 µM); in assay [4], more than 32 µg/mL.
`O=[N+]([O-])c1ccc(S(=O)(=O)Nc2ccccc2)c([N+](=O)[O-])c1` came in with an MIC in assay [1] of 8 µg/mL (≈ 24.7 µM).
`C#CCN(C)S(=O)(=O)c1ccc([N+](=O)[O-])cc1[N+](=O)[O-]`: the MIC in assay [1] is 8 µg/mL (≈ 26.7 µM); in assay [2] it was more than 32 µg/mL; in assay [3], 8 µg/mL (≈ 26.7 µM); in assay [4] it was more than 32 µg/mL.
Regarding `C#CCN(Cc1ccccc1)S(=O)(=O)c1ccc([N+](=O)[O-])cc1[N+](=O)[O-]`, the minimum inhibitory concentration (MIC) is 4 µg/mL (≈ 10.7 µM) in assay [1], 16 µg/mL (≈ 42.6 µM) in assay [2], 4 µg/mL (≈ 10.7 µM) in assay [3] and more than 32 µg/mL in assay [4].
As to `COc1ccc(N(CCCN(Cc2ccccc2)S(=O)(=O)c2ccc([N+](=O)[O-])cc2[N+](=O)[O-])S(=O)(=O)c2ccc([N+](=O)[O-])cc2[N+](=O)[O-])cc1`, in assay [1], the MIC was more than 32 µg/mL.
For the compound `N#Cc1ccc(NS(=O)(=O)c2ccc([N+](=O)[O-])cc2[N+](=O)[O-])cc1`, the MIC in assay [1] was more than 16 µg/mL.
On to `C=CCN(c1cccc(OC)c1)S(=O)(=O)c1ccc([N+](=O)[O-])cc1[N+](=O)[O-]`, for which the MIC in assay [1] was 8 µg/mL (≈ 20.3 µM); in assay [2] it was 16 µg/mL (≈ 40.7 µM); in assay [3] it was 8 µg/mL (≈ 20.3 µM); in assay [4], more than 32 µg/mL.
For `CCN(c1cccc(OC)c1)S(=O)(=O)c1ccc([N+](=O)[O-])cc1[N+](=O)[O-]`, the MIC in assay [1] is 8 µg/mL (≈ 21 µM); in assay [2], 8 µg/mL (≈ 21 µM); in assay [3], 8 µg/mL (≈ 21 µM); in assay [4], more than 32 µg/mL.
Compound `O=[N+]([O-])c1ccc(S(=O)(=O)N(CCCN(c2ccccc2F)S(=O)(=O)c2ccc([N+](=O)[O-])cc2[N+](=O)[O-])Cc2ccccc2)c([N+](=O)[O-])c1` displayed an MIC in assay [1] of more than 32 µg/mL.
Turning to `O=[N+]([O-])c1ccc(S(=O)(=O)N(CCCN(c2ccccc2)S(=O)(=O)c2ccc([N+](=O)[O-])cc2[N+](=O)[O-])Cc2ccccc2)c([N+](=O)[O-])c1`, in assay [1], the MIC was more than 16 µg/mL.
In the case of `COc1ccccc1CN(CCCN(Cc1ccccc1)S(=O)(=O)c1ccc([N+](=O)[O-])cc1[N+](=O)[O-])S(=O)(=O)c1ccc([N+](=O)[O-])cc1[N+](=O)[O-]`, the MIC in assay [1], in assay [2] and in assay [4] was more than 32 µg/mL throughout.
In turn, `COc1ccc(CNS(=O)(=O)c2ccc([N+](=O)[O-])cc2[N+](=O)[O-])cc1` displayed an MIC in assay [1] of more than 16 µg/mL.
Same read-out and setting: to `COc1ccc(NS(=O)(=O)c2ccc([N+](=O)[O-])cc2[N+](=O)[O-])cc1` belongs more than 16 µg/mL.
On to `C=CCN(c1ccccc1OC)S(=O)(=O)c1ccc([N+](=O)[O-])cc1[N+](=O)[O-]`, for which the MIC is 8 µg/mL (≈ 20.3 µM) in assay [1], more than 32 µg/mL in assay [2], 4 µg/mL (≈ 10.2 µM) in assay [3] and more than 32 µg/mL in assay [4].
